Data: US20080009418A1, “Selective Inhibitors” (Alchemia LTD., priority 2004, published 2008)

What was measured:
[1] = biological target: T1, Mouse urotensin (mUR2) (Mus musculus, UniProt Q8VIH9); assay: Radioligand binding, mouse urotensin mUR2 membranes, FlashPlate, [125I]-Urotensin II; conditions: compound at 10 μM, [125I]-Urotensin II
T1 construct: purchased Perkin Elmer Biosignal
T1 sequence (Q8VIH9 1-385): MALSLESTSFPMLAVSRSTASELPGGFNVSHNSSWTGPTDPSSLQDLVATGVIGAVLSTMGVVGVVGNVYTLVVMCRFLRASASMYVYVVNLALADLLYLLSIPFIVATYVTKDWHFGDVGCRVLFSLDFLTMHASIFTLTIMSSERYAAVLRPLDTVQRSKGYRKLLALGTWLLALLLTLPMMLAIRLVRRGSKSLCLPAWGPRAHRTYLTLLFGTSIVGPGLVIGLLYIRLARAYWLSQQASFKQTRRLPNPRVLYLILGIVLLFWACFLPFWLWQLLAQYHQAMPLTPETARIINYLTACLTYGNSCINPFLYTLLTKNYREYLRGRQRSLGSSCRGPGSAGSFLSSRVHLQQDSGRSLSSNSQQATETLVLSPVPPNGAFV
Procedure, shortened: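 Cloned mouse urotensin (mUR2) receptor membranes from Perkin Elmer Biosignal were immobilized in FlashPlate microplates using a proprietary coating. Each well got 19.5 μl buffer, then 0.5 μl of DMSO, reference ligand, or compound. Adding 5 μl of [125I]-Urotensin II, diluted to 5× final concentration in binding buffer, started binding. Plates were sealed with TopSeal-A and incubated 1 hour at room temperature in the dark. Wells were counted for 30 seconds each on a TopCount after a 60-second delay, and percentage inhibition was calculated.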

[2] = biological target: T2, Human neuropeptide Y (NPY-Y1) (Homo sapiens, UniProt P25929); assay: Radioligand binding, human neuropeptide Y NPY-Y1 membranes, FlashPlate, [125I]-PYY; conditions: compound at 10 μM, [125I]-PYY
T2 construct: purchased Perkin Elmer Biosignal
T2 sequence (P25929 1-384): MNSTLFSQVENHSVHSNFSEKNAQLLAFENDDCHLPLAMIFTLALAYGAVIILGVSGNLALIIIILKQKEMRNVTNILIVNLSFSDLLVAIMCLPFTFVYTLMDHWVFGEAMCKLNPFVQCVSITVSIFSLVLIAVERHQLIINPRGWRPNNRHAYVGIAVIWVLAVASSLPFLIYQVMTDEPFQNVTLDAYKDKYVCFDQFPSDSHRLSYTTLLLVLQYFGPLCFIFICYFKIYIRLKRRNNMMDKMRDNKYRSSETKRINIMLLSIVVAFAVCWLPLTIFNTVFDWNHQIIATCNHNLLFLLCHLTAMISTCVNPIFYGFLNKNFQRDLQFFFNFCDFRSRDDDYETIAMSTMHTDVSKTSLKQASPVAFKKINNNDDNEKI
Procedure, shortened: (§1)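 Cloned human receptor membranes were coated onto FlashPlate wells and incubated with radioligand and compound (added from a 0.5 mM DMSO daughter plate) for 1 hour at room temperature in the dark. Scintillation counting gave percent inhibition, with DMSO defining total and reference ligand defining non-specific binding.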

[3] = biological target: T3, Human κ-Opioid (KOP) (Homo sapiens, UniProt P41145); assay: Radioligand binding, human κ-opioid (KOP) membranes, filtration, [3H]-Diprenorphine; conditions: compound at 10 μM, [3H]-Diprenorphine
T3 construct: purchased Perkin Elmer Biosignal
Procedure, shortened: (§2)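 Percent inhibition of radioligand binding measured on recombinant human membranes: NK1 with [125I]-Substance P, KOP with [3H]-Diprenorphine. Incubation 1 h at room temperature, then harvest onto 0.3% PEI-soaked filters, cold Tris-HCl pH 7.4 washes and scintillation counting; non-specific binding from reference ligand wells.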

[4] = biological target: T4, Human δ-opioid (DOP) (Homo sapiens, UniProt P41143); assay: Radioligand binding, human δ-opioid (DOP) membranes, FlashPlate, [3H]-Bremazocine; conditions: compound at 10 μM, [3H]-Bremazocine
T4 construct: purchased Perkin Elmer Biosignal
Procedure, shortened: as §1

[5] = biological target: T5, Human μ-opioid (MOP) (Homo sapiens, UniProt P35372); assay: Radioligand binding, human μ-opioid (MOP) membranes, FlashPlate, [3H]-Naloxone; conditions: compound at 10 μM, [3H]-Naloxone
T5 construct: purchased Perkin Elmer Biosignal
Procedure, shortened: as §1

[6] = biological target: T6, Human Melanocortin (MC3) (Homo sapiens, UniProt P41968); assay: Radioligand binding, human melanocortin MC3 membranes, FlashPlate, [125I]-NDP-αMSH; conditions: compound at 10 μM, [125I]-NDP-αMSH
T6 construct: purchased Perkin Elmer Biosignal
Procedure, shortened: as §1

[7] = biological target: T7, Human opioid (ORL1) (Homo sapiens, UniProt P41146); assay: Radioligand binding, human opioid ORL1 membranes, FlashPlate, [125I]-Nociceptin; conditions: compound at 10 μM, [125I]-Nociceptin
T7 construct: purchased Perkin Elmer Biosignal
Procedure, shortened: as §1

[8] = biological target: T8, Human melanin-concentrating hormone (MCH1) (Homo sapiens, UniProt Q99705); assay: Radioligand binding, human melanin-concentrating hormone MCH1 membranes, FlashPlate, [125I]-S36057; conditions: compound at 10 μM
T8 construct: purchased Perkin Elmer Biosignal
Procedure, shortened: as §1

[9] = biological target: T9, Human melanocortin (MC5) (Homo sapiens, UniProt P33032); assay: Radioligand binding, human melanocortin MC5 membranes, FlashPlate, [125I]-NDP-αMSH; conditions: compound at 10 μM, [125I]-NDP-αMSH
T9 construct: purchased Perkin Elmer Biosignal
Procedure, shortened: as §1

[10] = biological target: T10, Human neurokinin (NK1) (Homo sapiens, UniProt P25103); assay: Radioligand binding, human neurokinin NK1 membranes, filtration, [125I]-Substance P; conditions: compound at 10 μM, [125I]-Substance P
T10 construct: purchased Perkin Elmer Biosignal
Procedure, shortened: as §2

[11] = biological target: T11, Human Melanocortin (MC4) (Homo sapiens, UniProt P32245); assay: Radioligand binding, human melanocortin MC4 membranes, FlashPlate, [125I]-NDP-αMSH; conditions: compound at 10 μM, [125I]-NDP-αMSH
T11 construct: purchased Perkin Elmer Biosignal
Procedure, shortened: as §1

T8 sequence (Q99705 whole entry): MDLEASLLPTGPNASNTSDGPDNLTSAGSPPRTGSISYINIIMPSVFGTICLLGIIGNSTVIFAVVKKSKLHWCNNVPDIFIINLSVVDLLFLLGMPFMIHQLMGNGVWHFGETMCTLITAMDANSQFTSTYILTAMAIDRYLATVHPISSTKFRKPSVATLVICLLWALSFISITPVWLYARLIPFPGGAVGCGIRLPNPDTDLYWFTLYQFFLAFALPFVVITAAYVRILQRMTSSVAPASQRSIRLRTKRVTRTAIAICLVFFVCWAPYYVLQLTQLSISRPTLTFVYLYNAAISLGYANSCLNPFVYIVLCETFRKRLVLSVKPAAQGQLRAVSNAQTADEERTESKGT
T6 sequence (P41968 whole entry): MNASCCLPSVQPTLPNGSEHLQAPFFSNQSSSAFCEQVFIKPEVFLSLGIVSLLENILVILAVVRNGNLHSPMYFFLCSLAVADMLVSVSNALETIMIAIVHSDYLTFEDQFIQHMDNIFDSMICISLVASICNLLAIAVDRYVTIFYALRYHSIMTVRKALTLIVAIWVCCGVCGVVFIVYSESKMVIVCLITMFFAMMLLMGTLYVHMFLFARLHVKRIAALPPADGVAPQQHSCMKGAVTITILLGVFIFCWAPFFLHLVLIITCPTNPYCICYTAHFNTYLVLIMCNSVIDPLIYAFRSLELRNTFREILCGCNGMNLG
T5 sequence (P35372 whole entry): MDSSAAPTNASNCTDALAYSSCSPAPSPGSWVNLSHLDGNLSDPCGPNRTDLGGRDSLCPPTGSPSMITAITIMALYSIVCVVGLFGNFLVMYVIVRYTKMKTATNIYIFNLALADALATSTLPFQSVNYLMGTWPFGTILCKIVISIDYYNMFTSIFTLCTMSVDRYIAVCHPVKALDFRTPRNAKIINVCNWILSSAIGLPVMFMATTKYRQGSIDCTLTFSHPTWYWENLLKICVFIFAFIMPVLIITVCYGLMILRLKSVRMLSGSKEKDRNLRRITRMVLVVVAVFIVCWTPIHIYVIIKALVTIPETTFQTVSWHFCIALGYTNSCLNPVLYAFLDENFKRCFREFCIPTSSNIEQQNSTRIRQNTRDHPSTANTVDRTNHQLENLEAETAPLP
T4 sequence (P41143 whole entry): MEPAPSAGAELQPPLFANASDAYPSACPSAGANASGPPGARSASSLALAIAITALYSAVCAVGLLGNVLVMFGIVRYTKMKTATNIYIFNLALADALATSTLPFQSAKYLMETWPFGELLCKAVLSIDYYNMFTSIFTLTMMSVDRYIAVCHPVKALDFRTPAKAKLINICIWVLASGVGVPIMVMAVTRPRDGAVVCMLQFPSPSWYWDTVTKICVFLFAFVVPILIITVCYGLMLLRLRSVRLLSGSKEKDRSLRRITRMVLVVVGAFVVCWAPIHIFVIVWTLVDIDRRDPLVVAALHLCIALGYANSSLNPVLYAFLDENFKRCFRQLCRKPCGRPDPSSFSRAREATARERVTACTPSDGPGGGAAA
T10 sequence (P25103 whole entry): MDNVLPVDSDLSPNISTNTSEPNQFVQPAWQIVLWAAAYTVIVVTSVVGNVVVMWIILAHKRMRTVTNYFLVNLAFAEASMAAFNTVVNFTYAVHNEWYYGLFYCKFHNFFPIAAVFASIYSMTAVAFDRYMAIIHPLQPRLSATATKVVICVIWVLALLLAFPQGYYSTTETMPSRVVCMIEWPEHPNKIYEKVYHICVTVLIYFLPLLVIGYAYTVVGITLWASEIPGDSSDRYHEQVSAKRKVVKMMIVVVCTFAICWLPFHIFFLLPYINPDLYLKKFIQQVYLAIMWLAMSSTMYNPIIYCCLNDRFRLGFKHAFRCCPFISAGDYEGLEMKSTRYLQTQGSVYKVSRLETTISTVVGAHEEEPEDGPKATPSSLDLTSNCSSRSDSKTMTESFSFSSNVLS
T7 sequence (P41146 whole entry): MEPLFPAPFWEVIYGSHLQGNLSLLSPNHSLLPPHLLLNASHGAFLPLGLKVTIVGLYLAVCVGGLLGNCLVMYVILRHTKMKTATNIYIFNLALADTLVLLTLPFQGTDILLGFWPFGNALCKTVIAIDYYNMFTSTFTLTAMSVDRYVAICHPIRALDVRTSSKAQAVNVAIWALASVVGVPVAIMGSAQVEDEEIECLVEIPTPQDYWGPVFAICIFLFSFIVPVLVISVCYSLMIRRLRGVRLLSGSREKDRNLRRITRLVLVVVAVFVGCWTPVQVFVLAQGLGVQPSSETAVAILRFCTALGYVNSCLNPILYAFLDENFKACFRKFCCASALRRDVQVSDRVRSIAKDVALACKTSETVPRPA
T3 sequence (P41145 whole entry): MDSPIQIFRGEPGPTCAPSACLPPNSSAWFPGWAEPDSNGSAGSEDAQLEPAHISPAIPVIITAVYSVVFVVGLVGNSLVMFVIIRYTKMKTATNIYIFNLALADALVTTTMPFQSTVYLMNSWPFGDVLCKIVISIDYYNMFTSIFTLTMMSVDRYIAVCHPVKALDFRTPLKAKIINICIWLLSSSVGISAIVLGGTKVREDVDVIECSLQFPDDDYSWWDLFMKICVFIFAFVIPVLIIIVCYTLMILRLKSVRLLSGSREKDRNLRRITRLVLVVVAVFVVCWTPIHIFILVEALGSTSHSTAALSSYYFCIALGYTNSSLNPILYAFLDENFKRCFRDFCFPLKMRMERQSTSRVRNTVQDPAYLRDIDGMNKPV
T9 sequence (P33032 whole entry): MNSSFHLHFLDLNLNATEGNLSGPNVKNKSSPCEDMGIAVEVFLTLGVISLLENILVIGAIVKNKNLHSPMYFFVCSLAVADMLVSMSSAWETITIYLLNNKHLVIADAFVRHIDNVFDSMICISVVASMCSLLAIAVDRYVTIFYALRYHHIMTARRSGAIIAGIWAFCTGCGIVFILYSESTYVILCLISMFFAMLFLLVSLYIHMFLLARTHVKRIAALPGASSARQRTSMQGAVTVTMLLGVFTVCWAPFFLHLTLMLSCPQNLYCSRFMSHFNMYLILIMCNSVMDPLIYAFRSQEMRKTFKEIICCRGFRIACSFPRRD
T11 sequence (P32245 whole entry): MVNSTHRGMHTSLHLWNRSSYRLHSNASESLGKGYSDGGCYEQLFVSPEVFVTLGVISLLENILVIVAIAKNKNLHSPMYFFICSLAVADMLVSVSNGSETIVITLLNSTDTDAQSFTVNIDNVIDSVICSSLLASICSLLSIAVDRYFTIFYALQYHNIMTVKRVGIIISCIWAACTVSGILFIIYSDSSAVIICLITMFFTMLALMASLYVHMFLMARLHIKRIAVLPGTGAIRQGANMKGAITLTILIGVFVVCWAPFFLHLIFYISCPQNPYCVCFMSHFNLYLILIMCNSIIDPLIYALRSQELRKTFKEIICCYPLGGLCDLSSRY

For `CO[C@H]1[C@H](O)[C@@H](COCc2ccc(-c3ccccc3)cc2)OC(OCc2ccc(Cl)cc2)[C@@H]1NC(=O)CCCNC(=N)N` (stereo partly shown) [compound 96], the “A11 radioligand binding, percentage inhibition” value [1] was “− (“−” indicates less than 50% inhibition at 10 μM)”, the “A9 radioligand binding, percentage inhibition” value [2] was “+ (“+” indicates greater than 50% inhibition at 10 μM)” and the “A2 radioligand binding, percentage inhibition” value [3] was “+ (“+” indicates greater than 50% inhibition at 10 μM)”. For the same molecule, the “A1 radioligand binding, percentage inhibition” value [4] was “− (“−” indicates less than 50% inhibition at 10 μM)”, the “A7 radioligand binding, percentage inhibition” value [5] was “− (“−” indicates less than 50% inhibition at 10 μM)” and the “A3 radioligand binding, percentage inhibition” value [6] was “+ (“+” indicates greater than 50% inhibition at 10 μM)”. For the same molecule, the “A10 radioligand binding, percentage inhibition” value [7] was “+ (“+” indicates greater than 50% inhibition at 10 μM)”, the “A6 radioligand binding, percentage inhibition” value ([8]; [125I]-S36057) was “+ (“+” indicates greater than 50% inhibition at 10 μM)” and the “A5 radioligand binding, percentage inhibition” value [9] was “+ (“+” indicates greater than 50% inhibition at 10 μM)”. For the same molecule, the “A8 radioligand binding, percentage inhibition” value [10] was “+ (“+” indicates greater than 50% inhibition at 10 μM)” and the “A4 radioligand binding, percentage inhibition” value [11] was “+ (“+” indicates greater than 50% inhibition at 10 μM)”.
For `NCCCC(=O)NC1C(OCc2ccc3ccccc3c2)OC(COCc2ccc3ccccc3c2)C(O)C1OCc1ccc(Cl)cc1` (stereo not shown) [compound 390], the “A11: inhibition of radioligand binding” value ([1]; mouse mUR2 membranes) was “− (“−” indicates less than 50% inhibition at 10 μM)”, the “A9: inhibition of radioligand binding” value ([2]; human NPY-Y1 membranes) was “− (“−” indicates less than 50% inhibition at 10 μM)” and the “A2: inhibition of radioligand binding” value ([3]; human KOP membranes, 10 µM) was “− (“−” indicates less than 50% inhibition at 10 μM)”. For the same molecule, the “A1: inhibition of radioligand binding” value ([4]; human DOP membranes) was “− (“−” indicates less than 50% inhibition at 10 μM)”, the “A7: inhibition of radioligand binding” value ([5]; human MOP membranes, 10 µM) was “− (“−” indicates less than 50% inhibition at 10 μM)” and the “A3: inhibition of radioligand binding” value ([6]; human MC3 membranes) was “+ (“+” indicates greater than 50% inhibition at 10 μM)”. For the same molecule, the “A10: inhibition of radioligand binding” value ([7]; human ORL1 membranes, 10 µM) was “+ (“+” indicates greater than 50% inhibition at 10 μM)”, the “A6: inhibition of radioligand binding” value ([8]; [125I]-S36057, human MCH1 membranes) was “+ (“+” indicates greater than 50% inhibition at 10 μM)” and the “A5: inhibition of radioligand binding” value ([9]; human MC5 membranes) was “+ (“+” indicates greater than 50% inhibition at 10 μM)”. The “A8: inhibition of radioligand binding” value ([10]; human NK1 membranes) was “+ (“+” indicates greater than 50% inhibition at 10 μM)” and the “A4: inhibition of radioligand binding” value ([11]; human MC4 membranes) was “+ (“+” indicates greater than 50% inhibition at 10 μM)”.
